Measured values reported in publication PMC8753592, “Long-acting capsid inhibitor protects macaques from repeat SHIV challenges” (Nature, 2021).
Several values for one entry are separate records, joined by “and”; a condition that tells them apart may be missing. Equal entries are not always repeated.

Tests used:
[1] = Metabolic stability of [3H]GS-CA1 in primary rhesus hepatocytes; format: in vitro ADME
Protocol: Propranolol (1 μM final), a compound known to be efficiently metabolized by hepatocytes by oxidation and conjugation, was used as a positive control. A cell-free control was incubated in parallel as a negative control. Aliquots (100 μl) were removed after 0 h, 1 h, 3 h and 6 h and were then mixed with 200 μl quenching solution, placed on a shaker for 10 min and centrifuged at 3,000g for 60 min. The supernatant was transferred to a new plate, diluted with 100 μl water and placed on a shaker for 10 min. […] PerkinElmer Ultima-Flo was used as the scintillation cocktail, which was mixed with the HPLC effluent at a ratio of 1:1. Sample (100 μl) was injected using a Leap Technologies CTC PAL autosampler. Separation was achieved on a Phenomenex Synergi Fusion-RP 80-Å pore size, 4-μm particle size, 150 × 4.6-mm column maintained at 32 °C. Mobile phase A consisted of 95% water, 5% acetonitrile and 0.1% trifluoroacetic acid (TFA). Mobile phase B consisted of 95% acetonitrile, 5% water and 0.1% TFA. […] The column was allowed to re-equilibrate for 12 min between injections. Quantification was based on the radiochromatographic peak area using Dionex (Thermo Scientific) Chromeleon 6.8 software.

[2] = Pilot pharmacokinetic study, single subcutaneous administration; conditions: individual animals
Protocol: All study protocols were reviewed and approved by the Covance Laboratories Institutional Animal Care and Use Committee (IACUC).
Rhesus plasma samples were stored frozen at −80 °C. For analysis, the samples were thawed, and a 50-µl aliquot of each sample was treated with 200 µl acetonitrile containing a generic internal small-molecule standard. After precipitation of the protein component, a 100-µl aliquot of the supernatant was transferred to a clean 96-well plate and was mixed with 200 µl water. A 20-μl aliquot of the above solution was then injected into a Q-Exactive high-resolution mass spectrometer (Thermo Scientific) with electrospray ionization in positive mode. Quantification was performed with a Thermo Scientific Xcalibur 4.0.27.19 using accurate masses (<5 parts per million mass error; [M + H]^+ of 958.1853 for GC-CA1 and 758.3270 for the internal standard, respectively)[22],[23]. […] Pharmacokinetic parameters, including the area under the plasma concentration–time curve from time 0 to the last quantifiable time point (AUClast), the area under the plasma concentration–time curve from time 0 to infinity (AUCinf), the maximum concentration (Cmax), the time to reach the observed peak plasma concentration (tmax) and the terminal half-life (t1/2), were determined by non-compartmental analysis using Phoenix WinNonlin 6.4 build 8.1.0.3530 software (Pharsight).

CC(C)(C#Cc1ccc(-c2ccc(Cl)c3c(NS(=O)(=O)C4CC4)nn(CC(F)F)c23)c([C@H](Cc2cc(F)cc(F)c2)NC(=O)Cn2nc(C(F)F)c3c2C(F)(F)[C@@H]2C[C@H]32)n1)S(C)(=O)=O [GS-CA1]
hepatic extraction [1]: 2.9%
predicted rate of hepatic clearance ([1]; 3H-labelled GS-CA1): 1.2 mL/min/kg
Plasma GS-CA1 level ([2]; 100 mg/kg s.c., 0.006 weeks post dose, unit not given (Fig. 1b in nM)): 41.2 and 93.2
Plasma GS-CA1 level ([2]; 100 mg/kg s.c., 0.018 weeks post dose, unit not given): 240
Plasma GS-CA1 level ([2]; 100 mg/kg s.c., 0.047 weeks post dose, unit not given): 588
Plasma GS-CA1 level ([2]; 100 mg/kg s.c., 0.14 weeks post dose, unit not given): 2054
Plasma GS-CA1 level ([2]; 100 mg/kg s.c., 0.29 weeks post dose, unit not given): 2247
Plasma GS-CA1 level ([2]; 100 mg/kg s.c., 0.43 weeks post dose, unit not given): 1217
Plasma GS-CA1 level ([2]; 100 mg/kg s.c., 0.57 weeks post dose, unit not given): 649
Plasma GS-CA1 level ([2]; 100 mg/kg s.c., 1 week post dose, unit not given): 448
Plasma GS-CA1 level ([2]; 100 mg/kg s.c., 2 weeks post dose, unit not given): 254
Plasma GS-CA1 level ([2]; 100 mg/kg s.c., 3 weeks post dose, unit not given): 125
Plasma GS-CA1 level ([2]; 100 mg/kg s.c., 4 weeks post dose, unit not given): 115
Plasma GS-CA1 level ([2]; 100 mg/kg s.c., 5 weeks post dose, unit not given): 92.7
Plasma GS-CA1 level ([2]; 100 mg/kg s.c., 6 weeks post dose, unit not given): 65.1
Plasma GS-CA1 level ([2]; 100 mg/kg s.c., 8 weeks post dose, unit not given): 43.2
Plasma GS-CA1 level ([2]; 100 mg/kg s.c., 10 weeks post dose, unit not given): 23.6
Plasma GS-CA1 level ([2]; 100 mg/kg s.c., 12 weeks post dose, unit not given): 11.5
Plasma GS-CA1 level ([2]; 100 mg/kg s.c., 14 weeks post dose, unit not given): 15.5 and 6.3
Plasma GS-CA1 level ([2]; 100 mg/kg s.c., 16 weeks post dose, unit not given): 10.4 and 5.1
Plasma GS-CA1 level ([2]; 100 mg/kg s.c., 18 weeks post dose, unit not given): 10.7 and 2.4
Plasma GS-CA1 level ([2]; 300 mg/kg s.c., 0.006 weeks post dose, unit not given (Fig. 1b in nM)): 74.8 and 53.9
Plasma GS-CA1 level ([2]; 300 mg/kg s.c., 0.018 weeks post dose, unit not given): 137 and 203 and 314
Plasma GS-CA1 level ([2]; 300 mg/kg s.c., 0.047 weeks post dose, unit not given): 205 and 325 and 1054
Plasma GS-CA1 level ([2]; 300 mg/kg s.c., 0.14 weeks post dose, unit not given): 3062 and 1232 and 2737
Plasma GS-CA1 level ([2]; 300 mg/kg s.c., 0.29 weeks post dose, unit not given): 3422 and 1597 and 1786
Plasma GS-CA1 level ([2]; 300 mg/kg s.c., 0.43 weeks post dose, unit not given): 1984 and 1345
Plasma GS-CA1 level ([2]; 300 mg/kg s.c., 0.57 weeks post dose, unit not given): 1342 and 1428
Plasma GS-CA1 level ([2]; 300 mg/kg s.c., 1 week post dose, unit not given): 938 and 936
Plasma GS-CA1 level ([2]; 300 mg/kg s.c., 2 weeks post dose, unit not given): 1435 and 680 and 798
Plasma GS-CA1 level ([2]; 300 mg/kg s.c., 3 weeks post dose, unit not given): 467 and 939 and 816
Plasma GS-CA1 level ([2]; 300 mg/kg s.c., 4 weeks post dose, unit not given): 461 and 659
Plasma GS-CA1 level ([2]; 300 mg/kg s.c., 5 weeks post dose, unit not given): 226 and 377 and 512
Plasma GS-CA1 level ([2]; 300 mg/kg s.c., 6 weeks post dose, unit not given): 291 and 348 and 602
Plasma GS-CA1 level ([2]; 300 mg/kg s.c., 8 weeks post dose, unit not given): 243 and 396
Plasma GS-CA1 level ([2]; 300 mg/kg s.c., 10 weeks post dose, unit not given): 116 and 206
Plasma GS-CA1 level ([2]; 300 mg/kg s.c., 12 weeks post dose, unit not given): 56.5 and 98.6 and 116
Plasma GS-CA1 level ([2]; 300 mg/kg s.c., 14 weeks post dose, unit not given): 66.9 and 71.3
Plasma GS-CA1 level ([2]; 300 mg/kg s.c., 16 weeks post dose, unit not given): 19.3 and 37.8 and 64.2
Plasma GS-CA1 level ([2]; 300 mg/kg s.c., 18 weeks post dose, unit not given): 10 and 26.3 and 22.2
concentration at 0.018 weeks ([2]; male, Indian origin, rhesus monkey, in vivo, 100 mg/kg, Plasma GS-CA1 level, 100 mg/kg s.c., 0.018 weeks post dose, unit inferred): 202 nM
concentration at 0.047 weeks ([2]; male, Indian origin, rhesus monkey, in vivo, 100 mg/kg, Plasma GS-CA1 level, 100 mg/kg s.c., 0.047 weeks post dose, unit inferred): 436 nM
concentration at 0.14 weeks ([2]; male, Indian origin, rhesus monkey, in vivo, 100 mg/kg, Plasma GS-CA1 level, 100 mg/kg s.c., 0.14 weeks post dose, unit inferred): 1210 nM
